Source: patent US6410545B1, “Lipid lowering quinazoline dietary supplement composition” (Parker Hughes Institute, priority 1998, dated 2002)
Where “and” joins values, the source holds several entries; their conditions need not be identical. Equal values may be shown once.

Legend:
apo e−/− mice [1] = test: Regression of pre-existing atherosclerotic lesions (Sudan IV stained aortas) in apo e−/− mice; format: in vivo; conditions: apo e−/− mice 7 months on Western diet, 40mg/kg/day for one month
Excerpt: Aortas from untreated (FIG. 6A), vehicle treated (FIG. 6B), and WHI-P164 treated (FIG. 6C) animals were stained with Sudan IV to show the fatty streaks. Aortas of untreated control mice were obtained at 7 months to reflect the pretreatment condition of the test groups. Aortas of vehichle treated or WHI-P164 treated test mice were obtained at 8 months following a one month treatment program. Statistical comparisons indicate **p=0.002 for untreated controls versus WHI-P164 treated test mice and p=0.007 for vehicle controls versus WHI-P164 treated mice.
The effectiveness of WHI-P164 against pre-existing atherosclerotic lesions in apo e^−/− mice kept 7 months on high fat Western diet was examined. apo e^−/− mice were treated with either vehicle control or WHI-P164 at 40mg/kg/day for one month. […] Treatment with WHI-P164 caused a marked regression of the atherosclerotic lesions with fatty streaks covering only 23±2% (n=7) of the aortic surface (FIG. 6B), as compared to 40±5% in untreated mice (n=3) (FIG. 6A) (p=0.002) and 40±5% in the vehicle-treated mice (n=8) (FIG. 6C) (p=0.007).

apo e−/− mice [2] = test: Hepatic and plasma lipids (Oil Red O staining, tissue lipid extraction) in apo e−/− mice on Western diet; format: in vivo; conditions: 40 mg/kg/day for 1 week
Protocol: (§1) Serum total cholesterol was measured enzymatically using the cholesterol kit from Sigma Chemical Co. (St. Louis, Mo., USA). For liver tissue lipid measurements, lipids were extracted from homogenized hepatic tissues using the method of Bligh and Dyer (Bligh, et al., Can. J. Biochem. Phys. 1959, 37:911-917). One gram of liver tissue was homogenized in 1 ml of distilled water and extracted with 4 ml of chloroform/methanol (1:1, v/v). The chloroform phase containing the lipids was evaporated under a stream of nitrogen, the lipids dissolved in 100 μL of isopropanol, and subjected to cholesterol determination as described above. Triglyceride (TG) contents were determined using the TG kit from Sigma Chemical Co.
(§2) At the end of the experiment, the animals were sacrificed and the harvested tissues were fixed in 10% phosphate buffered formalin overnight, embedded, sectioned, and stained by hematoxylin and eosin (H&E). The stained sections were examined for pathological changes. For Oil Red O staining, the liver was excised and snap frozen in liquid nitrogen. Five micrometer thick sections were obtained using the LeicaCM1800 cryostat (Heerbrugg, Switzerland), stained in 0.5% Oil Red O in propylene glycol for 1 hour, destained in 85% propylene glycol for 1 minute, rinsed twice in distilled water, counterstained in Mayer's hematoxylin for a few seconds, rinsed twice in distilled water, and mounted in Crystalmount (Biomedia Corp., Foster City, Calif.). The Oil Red O stainable material at 400 X magnification was quantitated using the ImagePro plus program (Media Cybernetics, Silver Spring, Md., USA) in conjunction with a 3CCD camera (DAGE-MTI Inc., Michigan City, USA).
apo e^−/− mice accumulate large amounts of TG-rich lipid droplets in their livers, due a blocked VLDL-TG secretion (Kuipers et al., 1997, J. Clin. Invest. 100:2915-2922). […] When tissue lipids were measured, there was a 22% reduction in hepatic cholesterol 39% reduction in hepatic triglycerides.

apo e−/− mice [3] = test: Blood chemistry and histopathology of treated apo e−/− mice; format: in vivo; conditions: 8 mg/kg/day or 40 mg/kg/day
Protocol: (§3) Animals were treated with test compounds by intraperitoneal injection daily for 7 days. A range of doses was administered. Control animals received vehicle alone. The effect of quinazoline derivatives on total cholesterol, LDL, HDL, liver enzymes, and glucose was analyzed. The mice tissues were also examined histologically.
Serum levels alanine aminotransferase (ALT), alkaline phosphatase (ALP), lactate dehydrogenase (LDH), blood urea nitrogen (BUN), creatinine, creatinine phosphokinase (CPK), and glucose were determined by using a Synchron CX5 Clinical System (Beckman Instruments, Inc., Fullerton, Calif.) following manufacturer's instructions. For the glucose tolerance test, blood glucose levels were determined using the portable One Touch Profile glucose meter (Lifescan, Milpitas, Calif., USA).
as §2

[4] = system: hypercholesterolemic C57B⅙ mice; test: Serum total cholesterol in hypercholesterolemic C57B⅙ mice on Paigen's cocoa butter diet; format: in vivo; conditions: 1.6 mg/kg/day
Protocol: Three- to four-week old C57B⅙ male mice (Taconic, Germantown, N.Y., USA) were kept in micro-isolator cages on a 12-hour day/night cycle and fed the Paigen's cocoa butter diet (15.8% fat, 1.25% cholesterol, and 0.5% sodium cholate) (Harlan Teklad, Madison, Wis., USA) for two weeks prior to initiation of lipid lowering therapy. Paigen's diet is described in Nishina et.al., 1993, J. Lipid Res. 34: 1413-1422.
as §3, §1
A high cholesterol and high fat diet was used to induce hypercholesterolemia in C57B⅙mice, using the methods described by Paigen, et al. (Nishina, et al., 1993, J. Lipid Res. 34:1413-1422) and as described for Example 1.

apo e−/− mice [5] = test: In vivo hepatic VLDL-TG production using Triton WR1339 in apo e−/− mice
Protocol: C57B⅙ and apoE-deficient mice were treated with intraperitoneal injections of 50 μl vehicle or 40 mg/kg WHI-P164 in 50 μl vehicle for 7 consecutive days, followed by a 36 hour fast to shut down intestinal chylomicron synthesis. […] Blood samples were taken at 0 and 4 hours after Triton WR1339 injection and plasma TG levels were measured enzymatically using a commercially available enzymatic kit (Sigma Chemical Co.). Alternatively, food was returned to the mice after a 36 hour fast and blood samples were collected at 0, 1, 3, 6, and 9 hours after returning the food. Accumulation of chylomicron-TG was determined as accumulation of plasma TG.
To determine if WHI-P164 prevent hepatic TG accumulation by relieving 9 block in VLDL-TG secretion or by inhibiting upstream TG synthesis, in vivo hepatic VLDL-TG synthesis was analyzed. Synthesis was determined by following the accumulation of VLDL-TG after shutting down VLDL catabolism with Triton WR1339 injection and intestinal chylomicron synthesis with a 36 hours fast.
C57B⅙ and apoE-deficient mice were treated with intra peritoneal injections of vehicle or 40 mg/kg WHI-P164 (in 50 μl vehicle) for 7 consecutive days, followed by a 36 hour fast to shut down intestinal chylomicron synthesis. […] Blood samples (50 μl) were taken at 0 and 4 hours after Triton WR1339 injection and plasma TG was measured enzymatically using a commercially available enzymatic kit (Sigma Chemical Co.), as previously reported (Kuipers, supra).

COc1cc2ncnc(C(=O)c3cccc(Br)c3)c2cc1OC [WHI-P164, 4-(3′-bromobenzoyl)-6,7-dimethoxyquinazoline]
Aortic surface covered by fatty streaks stainable by Sudan IV (apo e−/− mice [1]): 23±2%
Oil Red O stainable lipid material in liver (apo e−/− mice [2]): 658±256 red pixels/field
hepatic cholesterol (apo e−/− mice [2]): 51.4 ± 4.4 mg/g wet wt
hepatic triglycerides (apo e−/− mice [2]): 211.6 ± 27 mg/g wet wt
plasma FFA (apo e−/− mice [2]): 3.6 ± 0.3 mM
plasma TG (apo e−/− mice [2]): 165 ± 19 mg/dL
Reduction in hepatic cholesterol (apo e−/− mice [2]; versus vehicle): 22%
Reduction in hepatic triglycerides (apo e−/− mice [2]; versus vehicle): 39%
Reduction of liver lipid material (image analysis) (apo e−/− mice [2]; versus vehicle): 75%
Clinical or laboratory signs of toxicity (apo e−/− mice [3]): not associated with any obvious clinical or laboratory signs of toxicity
Histopathologic examination of tissues (apo e−/− mice [3]): did not reveal any drug related toxic lesions
Liver enzymes (ALT, AST, ALP, LDH), CPK levels, and BUN/Creatinine (apo e−/− mice [3]): remained within normal limits
Serum total cholesterol ([4]; apo e+/+ C57B1/6 mice, cocoa butter diet two weeks, then drug 1 week at 1.6 mg/kg/day i.p.): 348.6 ± 27.6 mg/dL and 349 ± 28 mg/dL
Reduction in mean serum total cholesterol ([4]; hypercholesterolemic C57B⅙ mice, one week, versus untreated): 23%
Triglyceride, Pre-Triton WR 1339 (apo e−/− mice [5]; apo e−/− (C57B1/6), 40 mg/kg i.p. 7 days, 36 hour fast): 155 ± 14 (n = 10) mg/dL
Triglyceride, Post-Triton WR 1339 (apo e−/− mice [5]; apo e−/− (C57B1/6), 40 mg/kg i.p. 7 days, 36 hour fast, 4 hours after Triton WR1339): 465 ± 46 (n = 8) mg/dL
Accumulation of VLDL-TG after Triton WR1339 treatment (apo e−/− mice [5]; apo e−/− mice, 40 mg/kg, versus vehicle): significantly less accumulation of VLDL-TG than vehicle-treated control mice
